Assay results published in publication PMC10095932 (Molecules, 2023).
“Also recorded” adds a separate entry of the source. Read-outs that look alike come from different tables or passages of the source. Where a SMILES comes first, the peptide text is derived from it. Bridges are numbered along the chain shown (N, C = ends).

Experiments:
rat NPR-A = target: T1, rat NPR-A (Rattus norvegicus, UniProt P18910); assay: cGMP ALPHAscreen, cGMP production in PC12 cells; assay type: cell-based; details: PC12 cells, cGMP ALPHAscreen
T1 construct: endogenous in cells; host or cells: rat PC12 cells
T1 sequence (P18910 29-1057): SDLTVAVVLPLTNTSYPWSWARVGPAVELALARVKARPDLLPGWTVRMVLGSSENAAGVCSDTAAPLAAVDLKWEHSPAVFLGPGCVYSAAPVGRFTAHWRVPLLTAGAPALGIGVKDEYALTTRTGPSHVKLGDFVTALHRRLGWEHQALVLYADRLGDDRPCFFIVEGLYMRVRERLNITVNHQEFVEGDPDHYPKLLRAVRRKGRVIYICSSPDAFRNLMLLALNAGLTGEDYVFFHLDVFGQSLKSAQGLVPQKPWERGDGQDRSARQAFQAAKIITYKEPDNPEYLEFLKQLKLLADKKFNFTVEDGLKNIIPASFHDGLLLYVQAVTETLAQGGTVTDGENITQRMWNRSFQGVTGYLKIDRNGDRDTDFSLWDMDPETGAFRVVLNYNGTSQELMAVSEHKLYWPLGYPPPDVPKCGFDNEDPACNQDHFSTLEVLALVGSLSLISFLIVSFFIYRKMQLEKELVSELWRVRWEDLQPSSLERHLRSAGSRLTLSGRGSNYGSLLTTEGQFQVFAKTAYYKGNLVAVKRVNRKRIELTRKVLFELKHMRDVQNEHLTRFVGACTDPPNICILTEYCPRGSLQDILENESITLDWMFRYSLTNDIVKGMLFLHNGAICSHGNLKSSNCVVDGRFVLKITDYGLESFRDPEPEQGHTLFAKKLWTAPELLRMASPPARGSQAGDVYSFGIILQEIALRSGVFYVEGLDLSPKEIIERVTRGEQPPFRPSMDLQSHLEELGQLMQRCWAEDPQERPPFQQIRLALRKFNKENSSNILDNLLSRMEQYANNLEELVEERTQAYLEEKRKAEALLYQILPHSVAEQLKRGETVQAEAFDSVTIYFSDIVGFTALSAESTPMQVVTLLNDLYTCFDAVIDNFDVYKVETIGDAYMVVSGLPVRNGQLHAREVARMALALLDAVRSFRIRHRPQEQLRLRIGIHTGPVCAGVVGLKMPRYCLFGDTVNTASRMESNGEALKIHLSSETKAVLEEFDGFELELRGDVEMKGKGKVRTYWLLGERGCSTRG
Procedure: NP activity can be determined by the effectiveness of the peptide to elicit cGMP production through NPR-A. The cGMP ALPHAscreen evaluates the ability of peptides to stimulate cGMP production in cells through a non-radioactive, homogenous, proximity assay which encompasses […]. […] In order to evaluate the potency of TNPa-e at rNPR-A, TNPa-e were evaluated using the cGMP ALPHAscreen in rat PC12 cells.
(§1) Cells were cultured at 5% CO2 and 37 °C. HEK 293 cells were cultured in high glucose DMEM (Gibco, Carlsbad, CA, USA) supplemented with 10% FBS, and 1% penicillin/streptomycin. HEK 293 cells were seeded in media lacking penicillin/streptomycin 24 to 48 h pre-transfection. PC12 cells were cultured in high glucose DMEM (Gibco) supplemented with 10% FBS and 1% penicillin/streptomycin.
(§2) The cGMP ALPHAscreen was performed using the ALPHAscreen Protein A detection kit and the biotinylated cGMP supplement (Perkin Elmer, Waltham, MA, USA) with rabbit anti-cGMP polyclonal antibody (Biovision, Mountain View, CA, USA). Cells were detached from the flask and the resulting pellet was resuspended in stimulation buffer (HBSS supplemented with 0.1% w/v BSA and 1 mM IBMX at 37 °C). Cells were added to a white 384-well Optiplate (Perkin Elmer, Waltham, USA) to 30,000 cells per well for HEK 293 cells and 10,000 cells per well for PC12 cells. Cells were incubated with different concentrations of test peptides (concentration range of 1 × 10^−5 to 1 × 10^−11 M in stimulation buffer) at 37 °C for 30 min. Cells were lysed with lysis buffer (1 M HEPES, 0.3% Tween-20, 1% BSA in H2O, pH 7.4). Then 5 μL acceptor-bead mix was added to each well under subdued lighting conditions, followed by 5 μL of donor-bead mix. Plates were incubated for ~12 h, slowly shaking at room temperature. After incubation, the ALPHAscreen signal was measured using an EnVision plate reader (Perkin Elmer). The standard curve consisted of cGMP in a concentration range of 1 × 10^−6 to 1 × 10^−12 M. All data points were acquired in triplicate and were analyzed using GraphPad Prism 5.0 software (GraphPad Software, Inc., San Diego, CA, USA).

human NPR-A = target: T2, human NPR-A (Homo sapiens, UniProt P16066); assay: cGMP ALPHAscreen, cGMP production in HEK 293 cells transiently overexpressing hNPR-A; assay type: cell-based; details: HEK 293 cells overexpressing hNPR-A
T2 construct: expressed in transfected cells; host or cells: HEK 293 cells, transient, Lipofectamine 2000
T2 sequence (P16066 33-1061): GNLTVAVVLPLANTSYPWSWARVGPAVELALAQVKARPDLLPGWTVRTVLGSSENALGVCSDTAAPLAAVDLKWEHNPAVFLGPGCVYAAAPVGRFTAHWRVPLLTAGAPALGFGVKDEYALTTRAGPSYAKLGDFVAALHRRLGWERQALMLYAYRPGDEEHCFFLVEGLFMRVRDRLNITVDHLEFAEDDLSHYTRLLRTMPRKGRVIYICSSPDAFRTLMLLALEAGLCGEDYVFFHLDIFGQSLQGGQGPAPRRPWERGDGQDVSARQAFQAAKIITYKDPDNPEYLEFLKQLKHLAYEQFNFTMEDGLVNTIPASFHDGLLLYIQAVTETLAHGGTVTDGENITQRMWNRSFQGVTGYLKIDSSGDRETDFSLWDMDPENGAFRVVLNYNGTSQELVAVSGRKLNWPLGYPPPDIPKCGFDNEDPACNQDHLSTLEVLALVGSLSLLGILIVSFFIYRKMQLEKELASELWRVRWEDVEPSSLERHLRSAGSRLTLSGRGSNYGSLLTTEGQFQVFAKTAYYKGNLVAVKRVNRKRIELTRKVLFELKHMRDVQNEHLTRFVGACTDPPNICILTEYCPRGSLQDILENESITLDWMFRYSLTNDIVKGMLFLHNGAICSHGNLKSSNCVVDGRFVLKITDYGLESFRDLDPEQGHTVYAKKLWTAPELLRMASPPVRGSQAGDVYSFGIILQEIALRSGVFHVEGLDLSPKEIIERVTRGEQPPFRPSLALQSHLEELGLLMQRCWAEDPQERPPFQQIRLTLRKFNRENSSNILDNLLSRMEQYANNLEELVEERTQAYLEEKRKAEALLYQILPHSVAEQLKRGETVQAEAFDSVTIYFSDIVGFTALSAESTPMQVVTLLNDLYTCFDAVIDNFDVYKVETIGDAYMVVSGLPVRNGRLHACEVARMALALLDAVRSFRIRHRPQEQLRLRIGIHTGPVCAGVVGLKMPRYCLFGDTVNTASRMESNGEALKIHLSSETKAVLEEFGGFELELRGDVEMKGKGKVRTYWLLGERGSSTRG
Procedure: as §1
HEK 293 cells were transfected using the lipofectamine 2000 transfection protocol (Invitrogen). Cells (95% confluence) were transfected with 45% pcDNA3.1/hNPR-A, 45% pcDNA3.1, and 10% pEGFP-NI to the optimal DNA concentration specified in the protocol. The co-transfection with pEGFP-NI plasmid allowed the determination of the transfection efficiency. This was assessed by the estimation of the number of GFP-expressing cells using an Olympus IX70 inverted fluorescence microscope. Transfected cells were used for assay purposes within 24 h.
as §2

[1] = cited from earlier work
Excerpt: In humans, the NP system consists primarily of three main peptides, A-type or atrial natriuretic peptide (ANP), B-type or brain natriuretic peptide (BNP), and C-type natriuretic peptide (CNP). Distinct variations in the expression levels of each NP correlates strongly with normal physiological and disease conditions. Due to their importance in cardio-renal diseases these peptides have been extensively studied. Structurally, the NP family is characterized by a 17-residue ring structure with a highly conserved internal sequence and variable N- and C-terminal regions. W ...

[2] = tested on: Neutral endopeptidase 24.11 (NEP); assay: 500 ng NEP (activity 400 pmol min^−1 μg^−1) in 100 mM Tris.HCl and 150 mM NaCl (pH 7.4); details: 37 °C, up to 24 h

Question: With `CC[C@H](C)[C@H](NC(=O)[C@H](CCCCN)NC(=O)[C@H](CO)NC(=O)[C@H](CC(=O)O)NC(=O)[C@@H](N)CO)C(=O)NCC(=O)N[C@@H](CC(=O)O)C(=O)NCC(=O)N[C@H]1CSSC[C@@H](C(=O)N[C@@H](CC(N)=O)C(=O)N[C@@H](CCCNC(=N)N)C(=O)N2CCC[C@H]2C(=O)N[C@H](C(=O)N[C@@H](CCC(N)=O)C(=O)N[C@@H](CC(N)=O)C(=O)N[C@@H](CCCNC(=N)N)C(=O)N2CCC[C@H]2C(=O)N[C@@H](CCCCN)C(=O)N[C@@H](CCC(N)=O)C(=O)N[C@H](C(=O)N2CCC[C@H]2C(=O)NCC(=O)NCC(=O)N[C@@H](CO)C(=O)O)[C@@H](C)CC)C(C)C)NC(=O)CNC(=O)[C@H](CC(C)C)NC(=O)CNC(=O)[C@H](CO)NC(=O)[C@H](C(C)C)NC(=O)[C@H](CO)NC(=O)CNC(=O)[C@H]([C@@H](C)CC)NC(=O)[C@H](Cc2c[nH]cn2)NC(=O)[C@H](CC(=O)O)NC(=O)[C@H](CC(C)C)NC(=O)[C@@H]2CCCN2C(=O)[C@H](CC(C)C)NC(=O)CNC(=O)[C@H](Cc2ccccc2)NC1=O` [TNPe] (H-SDSKIGDGCFGLPLDHIGSVSGLGCNRPVQNRPKQIPGGS-OH; disulfide 9-25) as the compound, how does the EC50 (rat NPR-A; 30 min at 37 °C, three to five separate experiments in triplicate, read-out: rNPR-A EC50 (95% CI), potency to stimulate cGMP production) read?
Answer: Its EC50 is 1.8 µM.

Question: What about the EC50 (rat NPR-A; read-out: EC50 at rNPR-A) of the same compound?
Answer: The EC50 was over 1 µM.

Question: And the Emax at 10 µM (human NPR-A; HEK293, read-out: cGMP production, % of the maximum response (compared with DNP, hANP, hBNP), at 10 μM)?
Answer: Its Emax at 10 µM is under 20%.

Question: And the EC50 (human NPR-A; 30 min at 37 °C, cGMP ALPHAscreen, three separate experiments in triplicate, read-out: hNPR-A EC50 (95% CI), potency to stimulate cGMP production)?
Answer: Its EC50 is over 10 µM.

Question: Which half-life in plasma [1] does the source give for `CC[C@H](C)[C@@H]1NC(=O)[C@H](CCCNC(=N)N)NC(=O)[C@H](CC(=O)O)NC(=O)[C@H](CCSC)NC(=O)[C@H](CCCNC(=N)N)NC(=O)CNC(=O)CNC(=O)[C@H](Cc2ccccc2)NC(=O)[C@@H](NC(=O)[C@H](CO)NC(=O)[C@H](CO)NC(=O)[C@H](CCCNC(=N)N)NC(=O)[C@H](CCCNC(=N)N)NC(=O)[C@H](CC(C)C)NC(=O)[C@@H](N)CO)CSSC[C@@H](C(=O)N[C@@H](CC(N)=O)C(=O)N[C@@H](CO)C(=O)N[C@@H](Cc2ccccc2)C(=O)N[C@@H](CCCNC(=N)N)C(=O)N[C@@H](Cc2ccc(O)cc2)C(=O)O)NC(=O)CNC(=O)[C@H](CC(C)C)NC(=O)CNC(=O)[C@H](CO)NC(=O)[C@H](CCC(N)=O)NC(=O)[C@H](C)NC(=O)CNC1=O` [hANP, human atrial natriuretic peptide] here?
Answer: The half-life in plasma was 3 min.

Question: Which half-life in plasma [1] does the source give for `CC[C@H](C)[C@@H]1NC(=O)[C@H](CCCNC(=N)N)NC(=O)[C@H](CC(=O)O)NC(=O)[C@H](CCSC)NC(=O)[C@H](CCCCN)NC(=O)[C@H](CCCNC(=N)N)NC(=O)CNC(=O)[C@H](Cc2ccccc2)NC(=O)[C@@H](NC(=O)CNC(=O)[C@H](CO)NC(=O)CNC(=O)[C@H](CCC(N)=O)NC(=O)[C@@H](NC(=O)[C@H](CCSC)NC(=O)[C@H](CCCCN)NC(=O)[C@@H]2CCCN2C(=O)[C@@H](N)CO)C(C)C)CSSC[C@@H](C(=O)N[C@@H](CCCCN)C(=O)N[C@H](C(=O)N[C@@H](CC(C)C)C(=O)N[C@@H](CCCN=C(N)N)C(=O)N[C@@H](CCCN=C(N)N)C(=O)N[C@@H](Cc2cnc[nH]2)C(=O)O)C(C)C)NC(=O)CNC(=O)[C@H](CC(C)C)NC(=O)CNC(=O)[C@H](CO)NC(=O)[C@H](CO)NC(=O)[C@H](CO)NC(=O)[C@H](CO)NC1=O` [hBNP] here?
Answer: Its half-life in plasma is 22 min.

Question: With SDSKIGNGCFGFPLDRIGSVSGLGCNRIMQNPPKKFSGE as the compound, how does the cleaved bond [2] read?
Answer: Its cleaved bond is “Lys35-Phe36, major, after 24 h; also recorded: Cys9-Phe10, major, after 24 h; also recorded: Arg27-Ile28, major, after 24 h”.
